The source made the active and inactive calls. The calls are words filed in the database; no cut-off is given here.

The values that follow come from ChEMBL document CHEMBL3882241, “Compounds inhibiting the binding of sap for treating osteoarthritis” (2006).

The target in assay [1] is Serum amyloid P-component (Homo sapiens) (UniProt P02743). Description: Inhibition of calcium dependent [125I]serum amyloid P-component (unknown origin) binding to immobilized Neisseria meningitidis at 2 mM incubated for 2 hrs by fluorescence/electron microscopy relative to control.
Serum amyloid P-component (Homo sapiens), sequence (P02743 whole entry): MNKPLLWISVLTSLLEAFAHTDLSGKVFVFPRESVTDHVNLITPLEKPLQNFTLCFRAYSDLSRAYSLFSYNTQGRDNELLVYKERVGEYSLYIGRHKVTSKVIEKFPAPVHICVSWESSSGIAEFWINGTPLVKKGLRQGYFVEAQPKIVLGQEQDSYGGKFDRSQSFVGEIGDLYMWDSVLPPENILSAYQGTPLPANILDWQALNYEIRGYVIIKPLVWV
The target is the same in assay [2]. Description: Inhibition of calcium dependent [125I]serum amyloid P-component (unknown origin) binding to immobilized Neisseria meningitidis at 200 uM incubated for 2 hrs by fluorescence/electron microscopy relative to control.
For assay [3] the target is unchanged. Nature of the assay: Inhibition of calcium dependent [125I]serum amyloid P-component (unknown origin) binding to immobilized Neisseria meningitidis at 20 uM incubated for 2 hrs by fluorescence/electron microscopy relative to control.
Assay [4] shares this target. Nature of the assay: Inhibition of calcium dependent [125I]serum amyloid P-component (unknown origin) binding to immobilized Neisseria meningitidis at 2 uM incubated for 2 hrs by fluorescence/electron microscopy relative to control.
Assay [5] has the same target. Description: Inhibition of calcium dependent [125I]serum amyloid P-component (unknown origin) binding to immobilized Neisseria meningitidis at 200 nM incubated for 2 hrs by fluorescence/electron microscopy relative to control.
Assay [6] shares this target. Nature of the assay: Inhibition of calcium dependent [125I]serum amyloid P-component (unknown origin) binding to immobilized chicken erythrocyte native long chromatin at 2 mM incubated for 2 hrs by gamma counting relative to control.
The target is the same in assay [7]. Nature of the assay: Inhibition of calcium dependent [125I]serum amyloid P-component (unknown origin) binding to immobilized chicken erythrocyte native long chromatin at 200 uM incubated for 2 hrs by gamma counting relative to control.
Assay [8] shares this target. Nature of the assay: Inhibition of calcium dependent [125I]serum amyloid P-component (unknown origin) binding to immobilized chicken erythrocyte native long chromatin at 20 uM incubated for 2 hrs by gamma counting relative to control.
Assay [9] shares this target. Nature of the assay: Inhibition of calcium dependent [125I]serum amyloid P-component (unknown origin) binding to immobilized chicken erythrocyte native long chromatin at 2 uM incubated for 2 hrs by gamma counting relative to control.
The target is the same in assay [10]. Nature of the assay: Inhibition of calcium dependent [125I]serum amyloid P-component (unknown origin) binding to immobilized chicken erythrocyte native long chromatin at 200 nM incubated for 2 hrs by gamma counting relative to control.
Assay [11] shares this target. Nature of the assay: Inhibition of calcium dependent [125I]serum amyloid P-component (unknown origin) binding to immobilized influenza virus A/Shanghai/24/90 at 2 mM incubated for 2 hrs by fluorescence/electron microscopy relative to control.
For assay [12] the target is unchanged. Description: Inhibition of calcium dependent [125I]serum amyloid P-component (unknown origin) binding to immobilized influenza virus A/Shanghai/24/90 at 200 uM incubated for 2 hrs by fluorescence/electron microscopy relative to control.
Assay [13] has the same target. Description: Inhibition of calcium dependent [125I]serum amyloid P-component (unknown origin) binding to immobilized influenza virus A/Shanghai/24/90 at 20 uM incubated for 2 hrs by fluorescence/electron microscopy relative to control.
Assay [14] shares this target. Description: Inhibition of calcium dependent [125I]serum amyloid P-component (unknown origin) binding to immobilized influenza virus A/Shanghai/24/90 at 2 uM incubated for 2 hrs by fluorescence/electron microscopy relative to control.
The target is the same in assay [15]. Nature of the assay: Inhibition of calcium dependent [125I]serum amyloid P-component (unknown origin) binding to immobilized influenza virus A/Shanghai/24/90 at 200 nM incubated for 2 hrs by fluorescence/electron microscopy relative to control.
The subject of assay [16] is Homo sapiens. Nature of the assay: Reduction of serum amyloid P-component in amyloidosis patient at 10 mg, sc bid for 3 months. In kind it is functional.
For assay [17], the system named is Homo sapiens. Description: Reduction of serum amyloid P-component in amyloidosis patient at 15 mg, sc bid for 2 months. In kind it is functional.
Assay [18] addresses Serum amyloid P-component (Homo sapiens) (UniProt P02743). Conditions: 10 mM.
Description: Inhibition of calcium dependent [125I]serum amyloid P-component (unknown origin) binding to immobilized Neisseria meningitidis at 10 mM incubated for 2 hrs by fluorescence/electron microscopy relative to control
The target is the same in assay [19]. Nature of the assay: Inhibition of serum amyloid P-component (unknown origin) binding to immobilized amyloid beta 1 to 42 fibrils at 500 umol/L in presence of calcium by surface plasma resonance.
The target is the same in assay [20]. Nature of the assay: Inhibition of serum amyloid P-component (unknown origin) binding to immobilized amyloid beta 1 to 42 fibrils at 100 umol/L pre-incubated before calcium addition by surface plasma resonance.
Assay [21] shares this target. Nature of the assay: Inhibition of serum amyloid P-component (unknown origin) binding to immobilized amyloid beta 1 to 42 fibrils in presence of EDTA followed by re-exposure to SAP and calcium addition and re-exposure to compound at 50 umol/L by surface plasma resonance.

Usually inhibition stands for the relative decrease from the control value, in per cent. For `O=C(O)[C@H]1CCCN1C(=O)Cc1ccc(CC(=O)N2CCC[C@@H]2C(=O)O)c2ccccc12`, the inhibition worked out at 100% in [1]; 100% in assay [2]; 89% in assay [3]; 69% in assay [4]; 13% in assay [5]; 100% in [6]. For the same molecule, the inhibition is 96% in [7]; 77% in assay [8]; 35% in assay [9]; 15% in assay [10]; 98% in assay [11]; 94% in assay [12]. The figures for the inhibition in assay [13], in assay [14] and in assay [15] were 95%, 64% and 4%, respectively.
As to `Cc1c(OCC(=O)N2CCC[C@@H]2C(=O)O)cccc1OCC(=O)N1CCC[C@@H]1C(=O)O`, the inhibition worked out at 100% in assay [1]; 100% in [2]; 93% in assay [3]; 64% in assay [4]; 1% in assay [5]; 98% in assay [6]. Besides, the inhibition in assay [7] is 95%; in assay [8] it was 65%; in assay [9] it was 22%; in assay [10] it was 0%; in assay [11] it was 85%; in [12], 81%. Also, the inhibition in [13] worked out at 81%; in assay [14], 65%; in [15] it was 24%.
Turning to `O=C(O)[C@H]1CCCN1C(=O)CCCCC(=O)N1CCC[C@@H]1C(=O)O`, the inhibition in assay [1] came out at 100%; in assay [2], 79%; in assay [3], 74%; in [4] it was 61%; in [5], 5%; in assay [6] it was 93%. Moreover, the inhibition came out at 87% in assay [7]; 69% in [8]; 29% in assay [9]; 1% in [10]; 98% in [11]; 96% in assay [12]. In addition, the inhibition in assay [13] amounted to 90%; in assay [14] it was 81%; in [15], 36%. Also, the “inhibition (INH)” value with Homo sapiens [16] and in the assay on Homo sapiens [17] was 95% each time.
`O=C(O)[C@H]1CCCN1C(=O)Cc1cccc(CC(=O)N2CCC[C@@H]2C(=O)O)c1`: the inhibition in [1] stood at 100%; in assay [2], 100%; in [3] it was 92%; in assay [4], 64%; in assay [5] it was 28%; in assay [6] it was 98%. Besides, the inhibition in assay [7] turned out to be 94%; in assay [8] it was 56%; in assay [9], 18%; in [10], 0%; in [11], 82%; in [12], 77%. In addition, the values for the inhibition in assay [13], in [14] and in assay [15] were 73%, 68% and 25%, respectively.
As for `O=C(O)[C@H]1CCCN1C(=O)[C@H]1CC[C@@H](C(=O)N2CCC[C@@H]2C(=O)O)CC1`, the inhibition in assay [1] was 100%; in assay [2], 100%; in assay [3] it was 93%; in assay [4], 73%; in assay [5] it was 31%; in assay [6], 100%. For the same molecule, the inhibition in assay [7] turned out to be 94%; in assay [8] it was 67%; in [9], 35%; in assay [10] it was 1%; in assay [11], 92%; in [12], 89%. Further, the inhibition in assay [13] came out at 83%; in assay [14], 76%; in assay [15] it was 0%.
As for `NCCOP(=O)(O)O`, the inhibition in [1] was found to be 95%; in assay [2], 41%; in assay [3] it was 32%; in [4] it was 18%; in [5] it was 7%; in assay [6], 94%. Besides, the inhibition was determined as 59% in assay [7]; 36% in [8]; 9% in assay [9]; 3% in assay [10]; 69% in assay [11]; 51% in assay [12]. Further, the inhibition in [13] is 42%; in assay [14] it was 8%; in assay [15], 1%.
With `C[N+](C)(C)CCOP(=O)([O-])O`, the inhibition in assay [1] amounted to 24%; in [2], 3%; in assay [3], 4%; in assay [4], 5%; in assay [5], 0%; in [6], 19%. For the same molecule, the inhibition is 3% in assay [7]; 0% in assay [8]; 0% in assay [9]; 2% in assay [10]; 3% in [11]; 5% in assay [12]. The values for the inhibition in [13], in assay [14] and in assay [15] were 5%, 2% and 0%, respectively.
For `O=C(O)[C@H]1CCCN1C(=O)COc1cccc2c(OCC(=O)N3CCC[C@@H]3C(=O)O)cccc12`, the inhibition in assay [1] is 100%; in assay [2], 100%; in [3] it was 81%; in [4], 72%; in [5], 30%; in assay [6], 96%. Besides, the inhibition in [7] came out at 82%; in assay [8], 74%; in [9], 51%; in assay [10], 12%; in assay [11], 80%; in assay [12], 76%. The values for the inhibition in assay [13], in assay [14] and in assay [15] were 64%, 51% and 23%, respectively.
The molecule `O=C(O)CN(CCN(CC(=O)O)CC(=O)O)CC(=O)O` gave an inhibition in assay [18] of 100%.
For `C[C@H](CS)C(=O)N1CCC[C@@H]1C(=O)O`, the inhibition result in [19], in [20] and in assay [21] was “Active” in each case. The inhibition in [3] is 50%; in [4], 42%; in [5] it was 3%; in assay [12] it was 51%; in [13], 40%; in assay [14] it was 30%. In addition, the inhibition in assay [15] worked out at 12%.
